Measurements taken from ChEMBL document CHEMBL1201862, “PubChem BioAssay data set” (2004).
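All cell lines were grown in 96-well plates and treated with compound for 48 hours. Here, GI50 denotes the concentration required for 50% inhibition of growth.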 Active and inactive are the calls of the source. Rule as the data show it: active = GI50 up to about 1.1 µM and inactive = higher.

Legend:
Assay in all cases: NCI anticancer screen, dose series, 48 h
EKVX = system: EKVX
NCI-H23 = system: NCI-H23
SK-OV-3 = system: SK-OV-3
A549 = system: A549
MDA-MB-231 = system: MDA-MB-231
IGROV-1 = system: IGROV-1
786-0 = system: 786-0
NCI-H522 = system: NCI-H522
SR = system: SR
HOP-92 = system: HOP-92
RPMI-8226 = system: RPMI-8226
UACC-62 = system: UACC-62
K562 = system: K562
MDA-N = system: MDA-N
MCF7 = system: MCF7
SW-620 = system: SW-620
Malme-3M = system: Malme-3M
NCI-H226 = system: NCI-H226
KM-20L2 = system: KM-20L2
XF498 = system: XF498

SMILES: CN1CC2=C(OC(N)=C(C#N)C2c2cccs2)/C(=C/c2cccs2)C1 (stereo not given)
- GI50 (EKVX): 6.01 µM (inactive)
- GI50 (NCI-H23): 7.18 µM (inactive)
- GI50 (SK-OV-3): 55.7 µM (inactive)
- GI50 (A549): 8.3 µM (inactive)
- GI50 (MDA-MB-231): > 49 µM (inactive)
- GI50 (IGROV-1): 15.5 µM (inactive)
- GI50 (786-0): 31.3 µM (inactive)
- GI50 (NCI-H522): 7.94 µM (inactive)
- GI50 (SR): 4.17 µM (inactive)
- GI50 (HOP-92): 2.09 µM (inactive)
- GI50 (RPMI-8226): 4.45 µM (inactive)
- GI50 (UACC-62): 19.7 µM (inactive)
- GI50 (K562): 10.3 µM (inactive)
- GI50 (MDA-N): 5.64 µM (inactive)
- GI50 (MCF7): 0.223 µM (active)
- GI50 (SW-620): 42.8 µM (inactive)
- GI50 (Malme-3M): 8.65 µM (inactive)
- GI50 (NCI-H226): > 74.1 µM (inactive)

SMILES: c1ccc(CN2CCCCC(Sc3ccccc3)CC2)cc1 (stereo not given)
- GI50 (EKVX): 35.2 µM (inactive)
- GI50 (NCI-H23): 30.1 µM (inactive)
- GI50 (SK-OV-3): 58.2 µM (inactive)
- GI50 (A549): 87.3 µM (inactive)
- GI50 (IGROV-1): 91.6 µM (inactive)
- GI50 (786-0): 16.8 µM (inactive)
- GI50 (SR): 17.8 µM (inactive)
- GI50 (HOP-92): 28.5 µM (inactive)
- GI50 (RPMI-8226): 17.8 µM (inactive)
- GI50 (KM-20L2): 26.4 µM (inactive)
- GI50 (UACC-62): 36 µM (inactive)
- GI50 (K562): 15.5 µM (inactive)
- GI50 (SW-620): 1.53 µM (inactive)
- GI50 (Malme-3M): 19.1 µM (inactive)
- GI50 (NCI-H226): 32.1 µM (inactive)

SMILES: CCc1ccc(Nc2ccc([N+](=O)[O-])cc2[N+](=O)[O-])cc1
- GI50 (EKVX): 75.9 µM (inactive)
- GI50 (XF498): > 100 µM (inactive)
- GI50 (NCI-H23): 71.1 µM (inactive)
- GI50 (SK-OV-3): > 100 µM (inactive)
- GI50 (A549): 40.9 µM (inactive)
- GI50 (IGROV-1): 97.3 µM (inactive)
- GI50 (786-0): > 100 µM (inactive)
- GI50 (RPMI-8226): 39.1 µM (inactive)
- GI50 (KM-20L2): 69.3 µM (inactive)
- GI50 (UACC-62): 56.6 µM (inactive)
- GI50 (K562): 29.8 µM (inactive)
- GI50 (SW-620): > 100 µM (inactive)
- GI50 (Malme-3M): > 100 µM (inactive)
- GI50 (NCI-H226): 34.2 µM (inactive)

SMILES: N#CC(C(=O)/C(=N/N)C(C#N)c1ccccc1)c1ccccc1 (stereo not given)
- GI50 (EKVX): > 100 µM (inactive)
- GI50 (XF498): > 100 µM (inactive)
- GI50 (NCI-H23): > 100 µM (inactive)
- GI50 (SK-OV-3): > 100 µM (inactive)
- GI50 (A549): > 100 µM (inactive)
- GI50 (IGROV-1): > 100 µM (inactive)
- GI50 (786-0): > 100 µM (inactive)
- GI50 (NCI-H522): > 100 µM (inactive)
- GI50 (HOP-92): > 100 µM (inactive)
- GI50 (RPMI-8226): > 100 µM (inactive)
- GI50 (UACC-62): > 100 µM (inactive)
- GI50 (K562): > 100 µM (inactive)
- GI50 (SW-620): > 100 µM (inactive)
- GI50 (Malme-3M): > 100 µM (inactive)
- GI50 (NCI-H226): > 100 µM (inactive)

SMILES: COc1cc2c(cc1OCCCCCN1C(=O)c3cccc4cccc(c34)C1=O)N=C[C@@H]1CCCN1C2=O
- GI50 (EKVX): 0.492 µM (active)
- GI50 (NCI-H23): 0.222 µM (active)
- GI50 (SK-OV-3): 0.514 µM (active)
- GI50 (A549): 0.535 µM (active)
- GI50 (MDA-MB-231): 0.286 µM (active)
- GI50 (IGROV-1): 0.0552 µM (active)
- GI50 (786-0): 0.249 µM (active)
- GI50 (NCI-H522): 0.0336 µM (active)
- GI50 (SR): < 0.01 µM (active)
- GI50 (HOP-92): 0.142 µM (active)
- GI50 (RPMI-8226): 0.119 µM (active)
- GI50 (UACC-62): 0.13 µM (active)
- GI50 (K562): 0.114 µM (active)
- GI50 (MDA-N): 0.207 µM (active)
- GI50 (MCF7): 0.181 µM (active)
- GI50 (SW-620): 0.278 µM (active)
- GI50 (Malme-3M): 0.163 µM (active)
- GI50 (NCI-H226): 0.177 µM (active)

SMILES: CSc1n[nH]c2[nH]nc(C)c12
- GI50 (EKVX): > 100 µM (inactive)
- GI50 (NCI-H23): > 100 µM (inactive)
- GI50 (SK-OV-3): > 100 µM (inactive)
- GI50 (A549): > 100 µM (inactive)
- GI50 (MDA-MB-231): > 100 µM (inactive)
- GI50 (IGROV-1): > 100 µM (inactive)
- GI50 (786-0): > 100 µM (inactive)
- GI50 (NCI-H522): > 100 µM (inactive)
- GI50 (SR): 5.22 µM (inactive)
- GI50 (HOP-92): > 100 µM (inactive)
- GI50 (RPMI-8226): > 100 µM (inactive)
- GI50 (UACC-62): > 100 µM (inactive)
- GI50 (K562): > 74 µM (inactive)
- GI50 (MDA-N): > 100 µM (inactive)
- GI50 (MCF7): > 100 µM (inactive)
- GI50 (SW-620): > 100 µM (inactive)
- GI50 (Malme-3M): > 100 µM (inactive)
- GI50 (NCI-H226): > 100 µM (inactive)

SMILES: CC(=O)O[C@H]1CCC2[C@@H]3CCC4c5nonc5CC[C@]4(C)C3CC[C@@]21C (stereo not given in full)
- GI50 (EKVX): > 10 µM (inactive)
- GI50 (NCI-H23): > 10 µM (inactive)
- GI50 (SK-OV-3): > 10 µM (inactive)
- GI50 (A549): > 10 µM (inactive)
- GI50 (IGROV-1): > 10 µM (inactive)
- GI50 (786-0): > 10 µM (inactive)
- GI50 (NCI-H522): > 10 µM (inactive)
- GI50 (HOP-92): > 10 µM (inactive)
- GI50 (KM-20L2): > 10 µM (inactive)
- GI50 (UACC-62): > 10 µM (inactive)
- GI50 (K562): > 10 µM (inactive)
- GI50 (SW-620): > 10 µM (inactive)
- GI50 (Malme-3M): > 10 µM (inactive)
- GI50 (NCI-H226): > 10 µM (inactive)

SMILES: N#CCOc1ccc(/C=C/C(=O)c2ccc(Cl)cc2)cc1
- GI50 (EKVX): 39.6 µM (inactive)
- GI50 (NCI-H23): 24.8 µM (inactive)
- GI50 (SK-OV-3): 18.4 µM (inactive)
- GI50 (A549): 39.7 µM (inactive)
- GI50 (MDA-MB-231): 25.4 µM (inactive)
- GI50 (IGROV-1): 22 µM (inactive)
- GI50 (786-0): 22.6 µM (inactive)
- GI50 (NCI-H522): > 10 µM (inactive)
- GI50 (SR): 37.5 µM (inactive)
- GI50 (HOP-92): 32 µM (inactive)
- GI50 (RPMI-8226): 23.1 µM (inactive)
- GI50 (UACC-62): 19 µM (inactive)
- GI50 (K562): 26 µM (inactive)
- GI50 (MDA-N): 32.4 µM (inactive)
- GI50 (MCF7): 11.4 µM (inactive)
- GI50 (SW-620): 22.1 µM (inactive)
- GI50 (Malme-3M): 28 µM (inactive)
- GI50 (NCI-H226): > 100 µM (inactive)
